From US4894388A, “Glycosidase inhibitors and use thereof” (priority 1988, dated 1990)

Key:
[1] = tested on: α-D-mannosidase (multiple forms); experiment: Inhibition of multiple forms of α-D-mannosidase; format: biochemical; conditions: human liver
Description: (§1) Post mortem human liver, which had been stored at -20° C. until required was homogenized in deionized water (50%, w/v) in a Potter-Elvehjem homogenizer and then centrifuged at 37,000 g for 30 min in an MSE 18 centrifuge. The resultant supernatant was used as the source of enzymic activities.
(§2) The glycosidase activities in an extract of normal human liver were assayed by using the appropriate fluorigenic 4-methylumbelliferyl glycoside substrate (Koch-Light, Haverhill, Suffolk, U.K.) with a concentration of 0.5 mM at the optimal pH of each enzyme [Burditt et al., Clin. Chim. Acta 140, 201-209 (1980)]. Human liver acidic (lysomal) and neutral (cystosolic) α-D-mannosidases were assayed similarly at their pH-optima, of 4.0 and 6.5, respectively, after separation by affinity chromatography on concanavalin A-Sepharose® (Pharmacia Ltd, Milton Keynes, Bucks, U.K.) [Phillips et al., Biochem. J. 153, 579-587 (1976)]. The residual intermediate (Golgi) α-mannosidase II activity in extracts of fibroblasts from a patient with the lysosomal storage disease, mannosidosis, was assayed at pH 5.75 using the synthetic substrate (Burditt et al, Ibid.). The specificity of the inhibitors was determined by assaying the glycosidases in the presence and absence of a 1 mM solution of each compound. The nature of the inhibition and the value of Ki were determined using the Dixon graphical procedure.

[2] = target: T1, lysosomal (acidic) α-D-mannosidase (Homo sapiens, UniProt O00754); experiment: Inhibition of lysosomal (acidic) α-D-mannosidase, fluorigenic 4-methylumbelliferyl glycoside substrate; format: biochemical; conditions: for inhibition at 1000 µM: 1 mM inhibitor, 0.5 mM substrate, pH 4.0, mean of 2-4 determinations
T1 construct: Post mortem human liver, which had been stored at -20° C; from tissue; host or cells: post mortem human liver, 37,000 g supernatant; concanavalin A-Sepharose fraction
T1 sequence (O00754 50-1011): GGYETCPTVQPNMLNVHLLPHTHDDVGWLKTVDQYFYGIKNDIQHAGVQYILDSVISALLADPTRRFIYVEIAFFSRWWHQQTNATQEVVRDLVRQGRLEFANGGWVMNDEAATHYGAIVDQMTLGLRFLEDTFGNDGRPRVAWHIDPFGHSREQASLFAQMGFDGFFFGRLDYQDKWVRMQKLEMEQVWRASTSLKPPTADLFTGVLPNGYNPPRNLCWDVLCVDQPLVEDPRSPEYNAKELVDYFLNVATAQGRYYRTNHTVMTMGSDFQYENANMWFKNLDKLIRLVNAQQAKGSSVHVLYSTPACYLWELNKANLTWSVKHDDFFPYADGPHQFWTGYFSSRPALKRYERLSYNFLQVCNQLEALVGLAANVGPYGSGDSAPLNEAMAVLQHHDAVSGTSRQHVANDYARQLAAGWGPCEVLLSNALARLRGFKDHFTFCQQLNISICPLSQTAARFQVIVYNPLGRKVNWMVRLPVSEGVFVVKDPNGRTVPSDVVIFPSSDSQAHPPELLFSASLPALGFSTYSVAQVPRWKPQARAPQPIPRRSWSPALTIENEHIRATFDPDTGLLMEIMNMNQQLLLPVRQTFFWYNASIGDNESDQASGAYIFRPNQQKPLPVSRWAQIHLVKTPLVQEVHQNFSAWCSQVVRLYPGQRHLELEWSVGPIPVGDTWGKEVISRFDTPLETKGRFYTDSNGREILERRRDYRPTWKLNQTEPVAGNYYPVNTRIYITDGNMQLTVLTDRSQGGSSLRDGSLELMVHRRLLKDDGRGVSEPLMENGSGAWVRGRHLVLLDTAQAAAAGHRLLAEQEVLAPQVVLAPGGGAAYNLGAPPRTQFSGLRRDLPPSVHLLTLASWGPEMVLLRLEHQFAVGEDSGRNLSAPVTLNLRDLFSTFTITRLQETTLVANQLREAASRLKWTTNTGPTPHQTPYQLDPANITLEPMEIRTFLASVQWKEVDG
Description: as §1, §2
Enzymic activities were measured in the presence and absence of 1 mM inhibitor. Inhibition (%) was calculated as the fraction of activity lost in the presence of inhibitor. The values are means of two to four independent determinations.

β-D-glucosidase = experiment: Inhibition of β-D-glucosidase; format: biochemical, human; conditions: relative to α-D-mannosidase
Description: as §1, §2

inhibition at 1000 µM [2]	SMILES	inhibition of multiple forms of α-D-mannosidase (in words) [1]	inhibition of lysosomal α-D-mannosidase (in words) [2]	Ki ([2]; pH optimum of 4.0, Dixon graphical procedure)	inhibition of β-D-glucosidase (in words) (β-D-glucosidase)
3%	OC[C@H](O)[C@H]1[C@H](O)[C@H](O)CN1Cc1ccccc1 [N-benzyl DIA, N-benzyl-1,4-dideoxy-1,4-imino-L-allitol]				
13%	CN1C[C@@H](O)[C@@H](O)[C@@H]1[C@@H](O)CO [N-methyl DIA, N-methyl-1,4-dideoxy-1,4-imino-L-allitol]				

SMILES	inhibition at 1000 µM [2]	inhibition of multiple forms of α-D-mannosidase (in words) [1]	inhibition of lysosomal α-D-mannosidase (in words) [2]	Ki ([2]; pH optimum of 4.0, Dixon graphical procedure)	inhibition of β-D-glucosidase (in words) (β-D-glucosidase)
OC[C@H](O)[C@@H]1NC[C@@H](O)[C@H]1O [DIA, 1,4-dideoxy-1,4-imino-L-allitol]	84%	moderately strong inhibitor	good inhibitor	170 µM	to a lesser extent
